Experimental data: ChEMBL document CHEMBL1153874, “Synthesis and biological evaluation of cytotoxic properties of stilbene-based resveratrol analogs” (Eur J Med Chem, 2009)
≈ marks a conversion by molar mass, not a printed value.

Key:
[1] = Antimitotic activity in Lytechinus variegatus embryo assessed as inhibition of blastula formation at 41.7 uM relative to control; assay type: functional
[2] = Antimitotic activity in Lytechinus variegatus embryo assessed as inhibition of blastula formation at 417 uM relative to control; assay type: functional
[3] = Toxicity in mouse erythrocytes assessed as hemolysis at 1.5 to 200 ug/mL after 30 min by spectrophotometry; assay type: cell-based; conditions: erythrocyte, 0.5 h
B16 = experiment: Cytotoxicity against mouse B16 cells after 72 hrs by MTT assay; assay type: functional, cell-based; conditions: B16, 72 h
HCT-8 = experiment: Cytotoxicity against human HCT8 cells after 72 hrs by MTT assay; assay type: functional, cell-based; conditions: HCT-8, 72 h
HL-60 = experiment: Cytotoxicity against human HL60 cells after 72 hrs by MTT assay; assay type: functional, cell-based; conditions: HL-60, 72 h
CCRF-CEM = experiment: Cytotoxicity against human CEM cells after 72 hrs by MTT assay; assay type: cell-based
K562 = experiment: Cytotoxicity against human K562 cells after 72 hrs by MTT assay; assay type: functional, cell-based; conditions: K562, 72 h
Lytechinus variegatus [4] = experiment: Antimitotic activity in Lytechinus variegatus embryo assessed as inhibition of first cleavage at 41.7 uM relative to control; assay type: functional
Lytechinus variegatus [5] = experiment: Antimitotic activity in Lytechinus variegatus embryo assessed as inhibition of first cleavage at 417 uM relative to control; assay type: functional
Lytechinus variegatus [6] = experiment: Antimitotic activity in Lytechinus variegatus embryo assessed as inhibition of third cleavage at 41.7 uM relative to control; assay type: functional
Lytechinus variegatus [7] = experiment: Antimitotic activity in Lytechinus variegatus embryo assessed as inhibition of third cleavage at 417 uM relative to control; assay type: functional
MDA-MB-435 = experiment: cells; conditions: Homo sapiens, MDA-MB-435, 72 h
Description: Cytotoxicity against human MDA-MB-435 cells after 72 hrs by MTT assay

PC-3 = experiment: cells; conditions: Homo sapiens, PC-3, 72 h
Description: Cytotoxicity against human PC3 cells after 72 hrs by MTT assay

Lytechinus variegatus [8] = experiment: Antimitotic activity in Lytechinus variegatus embryo assessed as inhibition of third cleavage at 370 uM relative to control; assay type: functional
[9] = Antimitotic activity in Lytechinus variegatus embryo assessed as inhibition of blastula formation at 37 uM relative to control; assay type: functional
[10] = Antimitotic activity in Lytechinus variegatus embryo assessed as inhibition of blastula formation at 370 uM relative to control; assay type: functional
Lytechinus variegatus [11] = experiment: Antimitotic activity in Lytechinus variegatus embryo assessed as inhibition of first cleavage at 37 uM relative to control; assay type: functional
Lytechinus variegatus [12] = experiment: Antimitotic activity in Lytechinus variegatus embryo assessed as inhibition of first cleavage at 370 uM relative to control; assay type: functional
Lytechinus variegatus [13] = experiment: Antimitotic activity in Lytechinus variegatus embryo assessed as inhibition of third cleavage at 37 uM relative to control; assay type: functional
[14] = Antimitotic activity in Lytechinus variegatus embryo assessed as inhibition of blastula formation at 43.8 uM relative to control; assay type: functional
Lytechinus variegatus [15] = experiment: Antimitotic activity in Lytechinus variegatus embryo assessed as inhibition of first cleavage at 43.8 uM relative to control; assay type: functional
Lytechinus variegatus [16] = experiment: Antimitotic activity in Lytechinus variegatus embryo assessed as inhibition of third cleavage at 43.8 uM relative to control; assay type: functional
[17] = Antimitotic activity in Lytechinus variegatus embryo assessed as inhibition of blastula formation at 39.4 uM relative to control; assay type: functional
[18] = Antimitotic activity in Lytechinus variegatus embryo assessed as inhibition of blastula formation at 394 uM relative to control; assay type: functional
Lytechinus variegatus [19] = experiment: Antimitotic activity in Lytechinus variegatus embryo assessed as inhibition of first cleavage at 39.4 uM relative to control; assay type: functional
Lytechinus variegatus [20] = experiment: Antimitotic activity in Lytechinus variegatus embryo assessed as inhibition of first cleavage at 394 uM relative to control; assay type: functional
Lytechinus variegatus [21] = experiment: Antimitotic activity in Lytechinus variegatus embryo assessed as inhibition of third cleavage at 39.4 uM relative to control; assay type: functional
Lytechinus variegatus [22] = experiment: Antimitotic activity in Lytechinus variegatus embryo assessed as inhibition of third cleavage at 394 uM relative to control; assay type: functional
[23] = Antimitotic activity in Lytechinus variegatus embryo assessed as inhibition of blastula formation at 32 uM relative to control; assay type: functional
[24] = Antimitotic activity in Lytechinus variegatus embryo assessed as inhibition of blastula formation at 320 uM relative to control; assay type: functional
Lytechinus variegatus [25] = experiment: Antimitotic activity in Lytechinus variegatus embryo assessed as inhibition of first cleavage at 32 uM relative to control; assay type: functional
Lytechinus variegatus [26] = experiment: Antimitotic activity in Lytechinus variegatus embryo assessed as inhibition of first cleavage at 320 uM relative to control; assay type: functional
Lytechinus variegatus [27] = experiment: Antimitotic activity in Lytechinus variegatus embryo assessed as inhibition of third cleavage at 32 uM relative to control; assay type: functional
Lytechinus variegatus [28] = experiment: Antimitotic activity in Lytechinus variegatus embryo assessed as inhibition of third cleavage at 320 uM relative to control; assay type: functional
[29] = Antimitotic activity in Lytechinus variegatus embryo assessed as inhibition of blastula formation at 18.4 uM relative to control; assay type: functional
[30] = Antimitotic activity in Lytechinus variegatus embryo assessed as inhibition of blastula formation at 184 uM relative to control; assay type: functional
Lytechinus variegatus [31] = experiment: Antimitotic activity in Lytechinus variegatus embryo assessed as inhibition of first cleavage at 18.4 uM relative to control; assay type: functional
Lytechinus variegatus [32] = experiment: Antimitotic activity in Lytechinus variegatus embryo assessed as inhibition of first cleavage at 184 uM relative to control; assay type: functional
Lytechinus variegatus [33] = experiment: Antimitotic activity in Lytechinus variegatus embryo assessed as inhibition of third cleavage at 18.4 uM relative to control; assay type: functional
Lytechinus variegatus [34] = experiment: Antimitotic activity in Lytechinus variegatus embryo assessed as inhibition of third cleavage at 184 uM relative to control; assay type: functional
[35] = Antimitotic activity in Lytechinus variegatus embryo assessed as inhibition of blastula formation at 35.2 uM relative to control; assay type: functional
[36] = Antimitotic activity in Lytechinus variegatus embryo assessed as inhibition of blastula formation at 352 uM relative to control; assay type: functional
Lytechinus variegatus [37] = experiment: Antimitotic activity in Lytechinus variegatus embryo assessed as inhibition of first cleavage at 352 uM relative to control; assay type: functional
Lytechinus variegatus [38] = experiment: Antimitotic activity in Lytechinus variegatus embryo assessed as inhibition of first cleavage at 35.2 uM relative to control; assay type: functional
Lytechinus variegatus [39] = experiment: Antimitotic activity in Lytechinus variegatus embryo assessed as inhibition of third cleavage at 35.2 uM relative to control; assay type: functional
Lytechinus variegatus [40] = experiment: Antimitotic activity in Lytechinus variegatus embryo assessed as inhibition of third cleavage at 352 uM relative to control; assay type: functional

Compound	IC50 (MDA-MB-435) [µg/mL]	IC50 (PC-3) [µg/mL]	inhibition at 41.7 µM [1] [%]	inhibition at 417 µM [2] [%]	Activity [3]	IC50 (B16) [µg/mL]	IC50 (HCT-8) [µg/mL]	IC50 (HL-60) [µg/mL]	IC50 (CCRF-CEM) [µg/mL]	IC50 (K562) [µg/mL]	inhibition (Lytechinus variegatus [4]) [%]	inhibition (Lytechinus variegatus [5]) [%]	inhibition (Lytechinus variegatus [6]) [%]	inhibition (Lytechinus variegatus [7]) [%]	also measured
COc1ccc(/C=C/c2ccccc2)cc1OC	> 25	> 25	83	100	Non-toxic	> 25	> 25	> 25	> 25	> 25	0	0	6	100	
COc1ccc(/C=C(/C(=O)O)c2ccccc2)cc1	> 25	> 25			Non-toxic	> 25	> 25	> 25	> 25	> 25					inhibition at 39.4 µM [17]: 0.3%; inhibition at 394 µM [18]: 68.7%; inhibition (Lytechinus variegatus [19]): 0%; inhibition (Lytechinus variegatus [20]): 0%; inhibition (Lytechinus variegatus [21]): 3.6%; inhibition (Lytechinus variegatus [22]): 9.3%
COc1cc(/C=C(/C(=O)O)c2ccccc2)ccc1OC(C)=O	> 25	> 25			Non-toxic	> 25	> 25	> 25	> 25	> 25					inhibition at 32 µM [23]: 5%; inhibition at 320 µM [24]: 100%; inhibition (Lytechinus variegatus [25]): 0%; inhibition (Lytechinus variegatus [26]): 100%; inhibition (Lytechinus variegatus [27]): 2.3%; inhibition (Lytechinus variegatus [28]): 100%
COc1ccc(/C=C\c2ccccc2)cc1OC	6.08 (≈ 25.3 µM)	> 25	100	100	Non-toxic	> 25	> 25	6.42 (≈ 26.7 µM)	> 25	6.38 (≈ 26.5 µM)	0	100	100	100	
COc1ccc(/C=C(/C(=O)O)c2ccccc2)cc1OC	> 25	> 25			Non-toxic	> 25	> 25	> 25	> 25	> 25					inhibition at 35.2 µM [35]: 0.7%; inhibition at 352 µM [36]: 0.7%; inhibition (Lytechinus variegatus [37]): 3%; inhibition (Lytechinus variegatus [38]): 4.3%; inhibition (Lytechinus variegatus [39]): 0%; inhibition (Lytechinus variegatus [40]): 0%

Second part, led by results:

IC50 (MDA-MB-435) [µg/mL]	IC50 (PC-3) [µg/mL]	Compound	inhibition at 41.7 µM [1] [%]	inhibition at 417 µM [2] [%]	Activity [3]	IC50 (B16) [µg/mL]	IC50 (HCT-8) [µg/mL]	IC50 (HL-60) [µg/mL]	IC50 (CCRF-CEM) [µg/mL]	IC50 (K562) [µg/mL]	inhibition (Lytechinus variegatus [4]) [%]	inhibition (Lytechinus variegatus [5]) [%]	inhibition (Lytechinus variegatus [6]) [%]	inhibition (Lytechinus variegatus [7]) [%]	also measured
17.8 (≈ 65.7 µM)	> 25	COc1cc(/C=C(/C(=O)O)c2ccccc2)ccc1O			Non-toxic	> 25	> 25	> 25	> 25	> 25					inhibition (Lytechinus variegatus [8]): 7.3%; inhibition at 37 µM [9]: 5.3%; inhibition at 370 µM [10]: 99.7%; inhibition (Lytechinus variegatus [11]): 0%; inhibition (Lytechinus variegatus [12]): 0%; inhibition (Lytechinus variegatus [13]): 7.6%
13.8 (≈ 60.5 µM)	3.51 (≈ 15.4 µM)	Oc1ccc(/C=C/c2cc(O)cc(O)c2)cc1 [RESVERATROL]			Non-toxic	14.3 (≈ 62.9 µM)	5.82 (≈ 25.5 µM)	2.45 (≈ 10.7 µM)	5.91 (≈ 25.9 µM)	9.62 (≈ 42.1 µM)					inhibition at 43.8 µM [14]: 100%; inhibition (Lytechinus variegatus [15]): 97.9%; inhibition (Lytechinus variegatus [16]): 100%
> 25	> 25	O=C(O)/C(=C/c1ccccc1O)c1ccccc1	97.3	95.4	Non-toxic	> 25	> 25	> 25	> 25	> 25	12.3	44.5	96.3	100	
	0.45 (≈ 0.828 µM)	COc1cccc2c1C(=O)c1c(O)c3c(c(O)c1C2=O)C[C@@](O)(C(=O)CO)C[C@@H]3O[C@H]1C[C@H](N)[C@H](O)[C@H](C)O1 [DOXORUBICIN]							0.02 (≈ 0.0368 µM)	0.14 (≈ 0.258 µM)					inhibition at 18.4 µM [29]: 100%; inhibition at 184 µM [30]: 100%; inhibition (Lytechinus variegatus [31]): 100%; inhibition (Lytechinus variegatus [32]): 100%; inhibition (Lytechinus variegatus [33]): 100%; inhibition (Lytechinus variegatus [34]): 100%
